Key:
Kunming mice [1] = test: Determination of therapeutic index (ED50 and LD50, up-and-down method); format: in vivo, mouse; details: half male and half female
Procedure: Determination of therapeutic index (TI) of prodrug molecules: by referring the method in literature (Dixon, W. Staircase bioassay: the up-and-down method. Neurosci. Biobehav. Rev. 1991, 15, 47-50), the half-effective dose (ED50) and half-lethal dose (LD50) of the molecule to be tested were determined in Kunming mice (weighing 25-30 g, half male and half female). The therapeutic index for each molecule was calculated according to the equation: TI=LD50/ED50.

Kunming mice [2] = format: in vivo, mouse; details: Table 3; dose 2×ED50, tail vein injection, male Kunming mice
Procedure: For each drug, 10 male Kunming mice weighing 20-35 g were included, and the dose of each drug was 2×ED50 in mice. After the compound of the present invention and fospropofol were respectively dissolved in saline, the resultant solutions were injected via the mouse tail vein. For propofol, a glucose dilution (5 mg/mL) of a commercially available emulsion of diprivan was selected and injected via the mouse tail vein; while, for another substituted phenol molecule (CAS:1637741-58-2), its 30% fat emulsion was prepared as a medicated emulsion. The concentration of the injectable solution of the compound according to the present invention was 10-15 mg/mL, and the concentration of the injectable solution of fospropofol was 55 mg/mL, while the concentration of the injectable solution of another substituted phenol molecule (CAS:1637741-58-2) was 1 mg/mL. After injection of tested drug, the occurrence time T1 of righting reflex after its disappearance, the duration T2 for the disappearance of righting reflex (i.e. anesthesia time) and the time T3 required for the animal to recover completely after waking up were recorded. Complete recovery refers to the recovery of autonomous activities of animals to the level before administration. In the experiment, animals were not given respiratory support such as oxygen inhalation or intubation.

[3] = Decomposition of prodrugs in mouse plasma in vitro (HPLC of released propofol or other substituted phenol); format: in vitro ADME; details: 37° C.
Procedure: The prodrug to be tested was prepared into a saline solution of 10 mg/mL. 10 μL of drug-containing solution was added to 990 μL of mouse plasma, vortexed for 30 s, and then incubated at 37° C. At 30 s, 1 min, 5 min, 10 min, 30 min, 60 min and 120 min, 50 μL of drug-containing plasma was collected, to which was immediately added 150 μL of acetonitrile to terminate the enzymatic reaction, and then centrifuged at 20000 rpm and 4° C. for 10 min. 50 μL of supernatant was taken out and injected into HPLC, to determine the concentration of propofol by internal standard method. The decomposition rate of the prodrug was calculated from the concentrations of propofol or other substituted phenols. Chromatographic conditions: Agilent Zorbax XdB C18 column (150 mm)×4.6 mm, 5 μm); column temperature 30° C.; the mobile phase, water:acetonitrile (40:60, v/v); fluorescence wavelength: excitation wavelength (Ex) at 276 nm, emission wavelength (EM) at 310 nm; flow rate: 1.2 mL/min; retention time: internal standard (thymol) 3.9 min, propofol 7.4 min. Linear range of propofol or other substituted phenols: 50-35000 ng/mL. Instruments: Waters 2695 high performance liquid chromatograph, Waters 2475 fluorescence detector.

Structure (SMILES) | TI (therapeutic index) (Kunming mice [1]) | T1: the onset time after injection (Kunming mice [2]) | T2: the duration of disappearance of righting reflex (Kunming mice [2]) [min] | T3: the time required for righting reflex to recover to autonomous activity (Kunming mice [2]) [min] | Decomposition rates of prodrugs ([3]; 30 s) [%] | Decomposition rates of prodrugs ([3]; 1 min) [%] | Decomposition rates of prodrugs ([3]; 5 min) [%] | Decomposition rates of prodrugs ([3]; 10 min) | Decomposition rates of prodrugs ([3]; 30 min) [%] | Decomposition rates of prodrugs ([3]; 60 min) [%] | Decomposition rates of prodrugs ([3]; 120 min) [%] | Decomposition rates of prodrugs ([3]; 120 min, listed as fopropofol) [%]
CC(C)c1cccc(C(C)C)c1OC(=O)COC(=O)CN1CCCC1.Cl [Compound 42] | 3.7 | Immediate | 6 to 12 | 1 to 2 | 91 | 100 | 100 | 100% | 100 | 100 | 100 | 
CC(C)C[C@@H](N)C(=O)OCC(=O)Oc1c(C(C)C)cccc1C(C)C.Cl [Compound 48] | 4.1 | Immediate | 6 to 14 | 1 to 2 | 92 | 100 | 100 | 100% | 100 | 100 | 100 | 
CC(C)c1cccc(C(C)C)c1OCOP(=O)(O)O [Fospropofol, fospropofol, reference compound] | 2.9 | 1.5 to 2 min | 28 to 45 | 5 to 8 |  |  |  | not decomposed significantly | 3 | 16 | 38 | 38
